# Reference: patent US20120283096A1, “AGENT FOR IMPROVING PLANT GROWTH, SEEDS, AND METHOD FOR IMPROVING PLANT GROWTH” (Incorporated Administrative Agency National Agricu lture …, priority 2010, published 2012)
# Experiments:
# sulfide ion generation = assay: Blackening (ferric sulfide) of areas around paddy seeds versus sulfate ion concentration (FIG. 2); conditions: unsterilized soil, 30° C., one week after seeding, supernatant concentration
# Protocol: In the same manner as above, ammonium sulfate was applied to samples of unsterilized soil in amounts of 0, 0.75, 1.5, and 3 mol/m^2, respectively, and the samples of unsterilized soil were placed at rest at a constant temperature of 30° C. The supernatant liquids obtained after shaking the samples of soil thus adjusted had sulfate ion concentrations shown in FIG. 2. However, since methylene blue decolorizes in a reduced state, methylene blue weighing 0.1% of dry soil was added to each sample of soil so that a reduced state of the soil could be detected. […] It should be noted that methylene blue is known to decolorize at an oxidation-reduction potential of 0.05 V or lower with a pH of approximately 6. […] Therefore, it is judged that in this experimental environment, an oxidation-reduction potential as normalized with a pH of 7 is at least temporarily 0 mV or lower.
# paddy rice = assay: Effect of sulfate ions in paddy soil on seedling establishment (Example 1-1, FIG. 1); type: in vivo
# Protocol: The effect of concentrations of sulfate ions, which serve as a substrate for sulfide ions, in the soil solution on the percentage of seedling establishment were examined for each of the following cases: unsterilized paddy soil placed at a constant temperature of 20° C.; unsterilized paddy soil placed at a constant temperature of 30° C., unsterilized paddy soil placed in an outdoor location (at a mean temperature of 25.4° C. for the duration of examination); and sterilized paddy soil placed at a constant temperature of 20° C.
# First, ammonium sulfate solutions in different concentrations were added to samples of paddy humid soil (obtained from a paddy field in Chikugo City, Fukuoka Prefecture, Japan; refrigerated in the form of humid soil until just before its use) with a soil-to-liquid ratio of 1:1.5, so that the resulting supernatant liquids above the samples of soil thus adjusted had varying concentrations of sulfate ions. The amounts of ammonium sulfate added to the samples of soil were equivalent to 0, 2, 4, 7, 10, 15, and 20 g/m^2 in terms of nitrogen, respectively, on the condition that the weight of dry soil is 100 kg/m^2. At the same time as ammonium sulfate, potassium in an amount of 5 g/m^2 in terms of potassium oxide was added as potassium chloride. Before the addition of the solutions to the samples of soil, some of the soil had been sterilized by being autoclaved for one hour at 121° C.
# Each of the samples of soil thus adjusted was placed into a container (in the shape of a cylinder approximately 7 cm in diameter) in an amount equivalent to 120 g of dry soil, shaken for approximately one hour, and left at rest for two days at 4° C. On this condition, the resulting soil layer was approximately 4 cm thick and the resulting water layer above the soil surface was approximately 1 cm thick. Paddy rice seeds (branded as Hinohikari) were sterilized by being soaked in 70% ethanol for ten minutes and then in a fivefold diluted solution of sodium hypochlorite (purchased from Wako Pure Chemical Industries, Ltd.) for ten minutes. The paddy rice seeds were then slightly germinated by being soaked in water at 10° C. for five days and then in water at 30° C. for two days. The germinated unhusked rice thus obtained was used in the following testing.
# Nine paddy rice seeds per container were planted at a depth of 15 mm at intervals of approximately 2 cm in each of the samples of soil thus adjusted, and the seed holes were closed by lightly shaking the sample of soil. The samples of unsterilized soil were left at rest at a constant temperature of 20° C. or 30° C., and the samples of sterilized soil were left at a constant temperature of 20° C. in incubators in which fluorescent lights were on for twelve hours per day. […]
smiles,measurement,setting,value
"N.N.O=S(=O)(O)O [sulfate ions, ammonium sulfate]",sulfate ion concentration at which a blackened portion (ferric sulfide) appears around the seed,sulfide ion generation,≥ 0.91 mM
same,seedling establishment,"paddy rice; sterilized soil, 20° C., regardless of sulfate ion concentration",no decrease in seedling establishment
same,seedling establishment,"paddy rice; unsterilized soil, constant 20° C., sulfate ion concentration higher than 2 mM, after 21 days",substantially no seedling establishment
same,proportion of seedling establishment,"paddy rice; unsterilized soil, constant 30° C. or outdoor, sulfate ion concentration higher than 3 mM, after 21 days",≤ 10%
same,proportion of seedling establishment,"paddy rice; unsterilized soil, sulfate ion concentration of 1 mM, regardless of the conditions (20° C., 30° C., outdoor), after 21 days",drastic decreases in proportion of seedling establishment
